Measurements taken from ChEMBL document CHEMBL5620386, “Synthesis, biological screening and in silico studies of new N-phenyl-4-(1,3-diaryl-1H-pyrazol-4-yl)thiazol-2-amine derivatives as potential antifungal and antitubercular agents” (Eur J Med Chem, 2023).
In brackets after ≈: the same amount, converted by molar mass. Several values for one entry are separate records, joined by “and”; a condition that tells them apart may be missing. Equal entries are not always repeated. Activity calls are given as the source filed them. No cut-off for these calls is given here.

Legend:
Staphylococcus aureus [1] = assay: Antimicrobial activity against Staphylococcus aureus NCIM 2178 assessed as absence of growth by well diffusion method; type: functional
Candida albicans = assay: Antifungal activity against Candida albicans NCIM 3100 assessed as zone of inhibition by well diffusion method; type: functional
Proteus mirabilis [2] = assay: Antimicrobial activity against Proteus mirabilis NCIM 2388 assessed as absence of growth by well diffusion method; type: functional
Bacillus subtilis = assay: Antimicrobial activity against Bacillus subtilis NCIM 2063 assessed as zone of inhibition by well diffusion method; type: functional
Aspergillus niger [3] = assay: Antifungal activity against Aspergillus niger ATCC 504 assessed as absence of growth by well diffusion method; type: functional
Proteus mirabilis [4] = assay: Antimicrobial activity against Proteus mirabilis NCIM 2388 assessed as zone of inhibition by well diffusion method; type: functional
Escherichia coli = assay: Antimicrobial activity against Escherichia coli NCIM 2574 assessed as zone of inhibition by well diffusion method; type: functional
Staphylococcus aureus [5] = assay: Antimicrobial activity against Staphylococcus aureus NCIM 2178 assessed as zone of inhibition by well diffusion method; type: functional
Aspergillus niger [6] = assay: Antifungal activity against Aspergillus niger ATCC 504 assessed as zone of inhibition by well diffusion method; type: functional
[7] = tested on: Mycobacterium tuberculosis; assay: Antitubercular activity Mycobacterium tuberculosis H37Rv strain ATCC No- 27294 assessed as prevention of color change from blue to pink using Almar Blue measured after 24 hrs by MABA assay; type: functional
[8] = Cytotoxicity against mouse 3T3-L1 cells assessed as cell viability at 12.5 ug/ml measured after 24 hrs by MTT assay relative to control; type: toxicity, cell-based; settings: at 12.5 µg/mL, read-out: Activity
[9] = Cytotoxicity against mouse 3T3-L1 cells assessed as cell viability at 25 ug/ml measured after 24 hrs by MTT assay relative to control; type: toxicity, cell-based; settings: at 25 µg/mL, read-out: Activity

| SMILES | MIC (Staphylococcus aureus [1]) | inhibition zone (IZ) (Candida albicans) [mm] | MIC (Proteus mirabilis [2]) [µg/mL] | inhibition zone (IZ) (Bacillus subtilis) [mm] | MIC (Aspergillus niger [3]) | inhibition zone (IZ) (Proteus mirabilis [4]) [mm] | inhibition zone (IZ) (Escherichia coli) | inhibition zone (IZ) (Staphylococcus aureus [5]) [mm] | inhibition zone (IZ) (Aspergillus niger [6]) [mm] | MIC [7] | viability at 24 h, 12.5 ug/ml [8] [%] | viability at 24 h, 25 ug/ml [9] [%] |
| --- | --- | --- | --- | --- | --- | --- | --- | --- | --- | --- | --- | --- |
| Clc1ccc(-c2nn(-c3ccccc3)cc2-c2csc(Nc3ccccc3)n2)cc1 | 125 µg/mL (≈ 291 µM) | 11 | 125 (≈ 291 µM) | 12 | 31.2 µg/mL and 72.8 µM | 15.2 | inactive | 14 | 17.4 | 25 µg/mL and 58.4 µM | – | – |
| Clc1ccc(Nc2nc(-c3cn(-c4ccccc4)nc3-c3ccccc3)cs2)cc1 | 62.5 µg/mL and 146 µM | 11.2 | 125 (≈ 291 µM) | 12.2 | 15.6 µg/mL and 36.5 µM | 14.8 | inactive | 15.8 | 19.2 | 25 µg/mL and 58.4 µM | – | – |
| Fc1ccc(-n2cc(-c3csc(Nc4ccccc4)n3)c(-c3ccc(Cl)cc3)n2)cc1 | 125 µg/mL (≈ 280 µM) | 11 | 125 (≈ 280 µM) | 13.4 | 15.6 µg/mL and 35 µM | 14.2 | inactive | 15 | 18.2 | 1.6 µg/mL and 3.58 µM | 69.2 | 62.6 |
| Cc1ccc(Nc2nc(-c3cn(-c4ccccc4)nc3-c3ccc(Cl)cc3)cs2)cc1 | 125 µg/mL (≈ 282 µM) | 10.2 | 125 (≈ 282 µM) | 12 | 15.6 µg/mL and 35.3 µM | 14 | inactive | 15 | 18.2 | 1.6 µg/mL and 3.61 µM | 83.8 | 72.9 |
| Cc1ccc(Nc2nc(-c3cn(-c4ccccc4)nc3-c3ccccc3)cs2)cc1 | 125 µg/mL (≈ 306 µM) | 10.4 | 125 (≈ 306 µM) | 12 | 15.6 µg/mL and 38.3 µM | 15 | inactive | 15 | 18.4 | 50 µg/mL and 122 µM | – | – |
| Fc1ccc(-n2cc(-c3csc(Nc4ccc(Cl)cc4)n3)c(-c3ccccc3)n2)cc1 | 62.5 µg/mL and 140 µM | 10.8 | 125 (≈ 280 µM) | 13 | 15.6 µg/mL and 35 µM | 15 | 13 mm | 16 | 18.8 | 3.12 µg/mL and 7.01 µM | 102 | 46 |
| COc1ccc(Nc2nc(-c3cn(-c4ccc(F)cc4)nc3-c3ccc(Cl)cc3)cs2)cc1 | 125 µg/mL (≈ 262 µM) | 11.4 | – | 12.2 | 15.6 µg/mL and 32.8 µM | 13.2 | inactive | 15 | 18.8 | 1.6 µg/mL and 3.36 µM | 72.9 | 63.1 |
| Fc1ccc(-n2cc(-c3csc(Nc4ccc(Cl)cc4)n3)c(-c3ccc(Cl)cc3)n2)cc1 | 125 µg/mL (≈ 260 µM) | 10.4 | – | 12.6 | 15.6 µg/mL and 32.5 µM | 13.6 | 11 mm | 15 | 19 | 1.6 µg/mL and 3.33 µM | 74.4 | 56.7 |
| Cc1ccc(Nc2nc(-c3cn(-c4ccc(F)cc4)nc3-c3ccc(Cl)cc3)cs2)cc1 | 62.5 µg/mL and 136 µM | 10.8 | 125 (≈ 271 µM) | 12.2 | 15.6 µg/mL and 34 µM | 15 | inactive | 17 | 20.2 | 1.6 µg/mL and 3.47 µM | 72 | 91.3 |
| NC(=O)c1cnccn1 [PYRAZINAMIDE] | – | – | – | – | – | – | – | – | – | 3.12 µg/mL and 25.4 µM | – | – |
| CC[C@@H](CO)NCCN[C@@H](CC)CO [ETHAMBUTOL] | – | – | – | – | – | – | – | – | – | 1.6 µg/mL and 7.83 µM | – | – |
| CO[C@H]1/C=C/O[C@@]2(C)Oc3c(C)c(O)c4c(O)c(c(/C=N/N5CCN(C)CC5)c(O)c4c3C2=O)NC(=O)/C(C)=C\C=C\[C@H](C)[C@H](O)[C@@H](C)[C@@H](O)[C@@H](C)[C@H](OC(C)=O)[C@@H]1C [RIFAMPIN] | – | – | – | – | – | – | – | – | – | 0.8 µg/mL and 0.972 µM | – | – |
| Fc1ccc(-n2cc(-c3csc(Nc4ccccc4)n3)c(-c3ccccc3)n2)cc1 | 125 µg/mL (≈ 303 µM) | 10 | – | 12 | 15.6 µg/mL and 37.9 µM | 13.8 | inactive | 15 | 18.6 | 12.5 µg/mL and 30.3 µM | 99.5 | 94.8 |
| Cc1ccc(-c2nn(-c3ccccc3)cc2-c2csc(Nc3ccc(Cl)cc3)n2)cc1 | 62.5 µg/mL and 141 µM | 10 | – | 13.8 | 15.6 µg/mL and 35.3 µM | 13.8 | inactive | 16 | 20 | 0.8 µg/mL and 1.8 µM | 67.5 | 61.8 |
| Cc1ccc(Nc2nc(-c3cn(-c4ccccc4)nc3-c3ccc(C)cc3)cs2)cc1 | – | 11.4 | 125 (≈ 296 µM) | 13.2 | 15.6 µg/mL and 37 µM | 15 | inactive | 13 | 18 | 1.6 µg/mL and 3.79 µM | 70.1 | – |
| COc1ccc(Nc2nc(-c3cn(-c4ccccc4)nc3-c3ccccc3)cs2)cc1 | 125 µg/mL (≈ 294 µM) | 11.6 | 125 (≈ 294 µM) | 12.75 | 15.6 µg/mL and 36.8 µM | 14.2 | inactive | 15 | 20 | 25 µg/mL and 58.9 µM | – | – |
| NNC(=O)c1ccncc1 [ISONIAZID] | – | – | – | – | – | – | – | – | – | 1.6 µg/mL and 11.7 µM | – | – |
| COc1ccc(Nc2nc(-c3cn(-c4ccc(F)cc4)nc3-c3ccccc3)cs2)cc1 | 125 µg/mL (≈ 282 µM) | 10.4 | – | 12.4 | 15.6 µg/mL and 35.3 µM | 13.8 | inactive | 15 | 19.2 | 3.12 µg/mL and 7.07 µM | 98.2 | 97.2 |
